{"source": "patent US4725578A", "about": "“Compounds having therapeutic effect and the preparation thereof” (Tobishi Pharmaceutical Co., Ltd., priority 1986, dated 1988)", "key": {"[1]": {"assay": "Neuropharmacological multidimentional observation (modified Arwin and Smith method)", "type": "in vivo, 4-weeks CD-1 (IRC) mice", "conditions": "intraperitoneal, 1 to 20 mg/kg, observed every 30 minutes for 180 minutes, compared with patterns of known medicines; listed as Acetic acid ester of TPC-A", "method": "In this test, other pharmacological effects which may be obtained by these compounds were investigated.\nEach compound of the invention was intraperitoneally administered to 4-weeks CD-1 (IRC) mice (Nippon Charles Liver K.K.) in the dose of 1 to 20 mg/kg with using mice groups consisting of three mice per group. […] The observation was carried out according to the modified Arwin method and Smith method, i.e., neuropharmacological multidimentional observation method.\nMaking a comparison between the symptom observed and the pattern of the pharmacological action due to the known medicines, it has been discovered that each compound of the invention has the following pharmacological effect."}, "Colon. 38": {"system": "Colon. 38", "assay": "Colon. 38 (sc-ip), inhibition", "type": "in vivo", "conditions": "8 mg/kg × 11, after 17 days"}, "B-16 melanoma": {"system": "B-16 melanoma", "assay": "B16 melanoma (ip-ip), survival T/C", "type": "in vivo, mice", "method": "(§1) In the Table, the symbol T/C % means Treatment/Control %, that is the increase in life when the control is 100. The values are obtained by implanting tumor cells to groups of mice (or rats), administering the compound being tested in various amounts every 24 hours after the implantation of the tumor cells and then calculating the ratio, the median survival time of the group to which the compound has been administered to the survival of the control, multiplied by a factor of 100. This method is used in the screening of U.S. National Cancer Institute. […]\n(§2) In Table 7, the symbol \"i.P.-i.P.\" means that the tumor cells are implanted intraperitoneally and the compounds being tested are also administered intraperitoneally. The symbol \"TR\" is the therapeutic ratio obtained by dividing the dose which provides a maximum T/C value, by the dose which provides a minimum T/C value."}, "[2]": {"assay": "Toxicity test, lethal dose (Litchfield-Wilcoxon)", "type": "in vivo, male 4-weeks CD-1 (ICR) mice", "conditions": "suspension in 0.5% CMC, 7 days observation", "method": "With respect to the compounds of this invention, the lethal dose was determined as follows.\nBy using male 4-weeks CD-1 (ICR) mice consisting of 5 to 10 mice per group, the desired amount of each compound of this invention was suspended in 0.5% CMC solution and the resultant suspension was administered to each mouse intraperitoneally or intravenously. Observing the life or death as well as the general symptome during 7 days after the administration of the compounds, the value of LD50 for each compounds was estimated from the lethal population observed on the basis of the Litchfield-Wilcoxon method."}, "Lewis Lung Carcinoma": {"system": "Lewis Lung Carcinoma", "assay": "Lewis Lung Carcinoma (sc-ip), inhibition", "type": "in vivo", "conditions": "8 mg/kg × 11, after 17 days"}, "P-388 cells": {"system": "P-388 cells", "assay": "Antineoplastic action against implanted P-388 cells (ip-ip), survival T/C", "type": "in vivo, CDFl mice", "conditions": "for T/C % (Treatment/Control %): Table 6, P388, intraperitoneal", "method": "To the peritoneal cavity of each group of mice consisting of six CDFl mice per group, 10^6 /0.1 ml of P-388 cells or 10^5 /0.1 ml of L-1210 cells were implanted. […]\nIn the Table, the symbol T/C % means Treatment/Control %, that is the increase in life when the control is 100. […] This method is used in the screening of U.S. National Cancer Institute.\nas §2"}, "Erlich carcinoma": {"system": "Erlich carcinoma", "assay": "Erlich carcinoma (sc-ip), inhibition", "type": "in vivo", "conditions": "4 mg/kg × 11, after 14 days"}, "P 388": {"system": "P 388", "assay": "P 388 (ip-iv), survival T/C", "type": "in vivo, mice", "method": "(§3) In the Table, the symbol T/C % means Treatment/Control %, that is the increase in life when the control is 100. The values are obtained by implanting tumor cells to groups of mice (or rats), administering the compound being tested in various amounts every 24 hours after the implantation of the tumor cells and then calculating the ratio, the median survival time of the group to which the compound has been administered to the survival of the control, multiplied by a factor of 100. This method is used in the screening of U.S. National Cancer Institute.\nIn Table 9, \"iv\" and \"sc\" means that the administration of the compounds is carried out intravenously and the implantation of the tumor cells is carried out subcutaneously."}, "L-1210 cells": {"system": "L-1210 cells", "assay": "Antineoplastic action against implanted L-1210 cells (ip-ip), survival T/C", "type": "in vivo, CDFl mice", "method": "In this animal test, the antineoplastic action against the implanted tumor was examined in lower animals, in vivo, in respect of the compounds according to the present invention, by using CDFl mice.\nTo the peritoneal cavity of each group of mice consisting of six CDFl mice per group, 10^6 /0.1 ml of P-388 cells or 10^5 /0.1 ml of L-1210 cells were implanted. […] While to the control groups of CDFl mice, P-388 and L-1210 cells were implanted in the same manner and they were bred without administration of the compounds.\nas §3, §2"}, "MM2": {"system": "MM2", "assay": "MM2 (ip-ip), survival T/C", "type": "in vivo, mice", "method": "as §1, §2\nThe term in Table 7, last column \"3/6 60<\", means that 3 mice out of 6 mice continue to live more than 60 days after the implantation of the tumor cells."}}, "note": "“Also recorded” adds a separate entry of the source."}
{"molecule": "COc1ccc(CC2C(=O)NC(C)C(=O)N(C)C3Cc4ccc(cc4)Oc4cc(ccc4OC(C)=O)CC(C(=O)NC(C)C(=O)NC(C)C(=O)N2C)N(C)C3=O)cc1", "note": "(centres unmarked) [Ex. 22]", "values": [{"measurement": "Pharmacological effect estinated", "setting": "[1]", "result": "emetic action; also recorded: psychotropic action; also recorded: antidiuretic action"}, {"measurement": "Inhibition", "setting": "Colon. 38", "result": 51.9, "unit": "%"}, {"measurement": "effectiveness against B-16 melanoma", "setting": "B-16 melanoma; (see Table 7)", "result": "effective"}, {"measurement": "B16 (i.P. - i.P.) T/C (%)", "setting": "B-16 melanoma; Table 7, dose 0.5 mg/kg", "result": 116.9, "unit": "%"}, {"measurement": "B16 (i.P. - i.P.) T/C (%)", "setting": "B-16 melanoma; Table 7, dose 2 mg/kg", "result": 128.5, "unit": "%"}, {"measurement": "B16 (i.P. - i.P.) T/C (%)", "setting": "B-16 melanoma; Table 7, dose 4 mg/kg", "result": 147.8, "unit": "%"}, {"measurement": "B16 (i.P. - i.P.) T/C (%)", "setting": "B-16 melanoma; Table 7, dose 8 mg/kg", "result": 141.1, "unit": "%"}, {"measurement": "LD50 and 95% Confidence Limit", "setting": "[2]; intraperitoneal", "result": "18.4(16.9-20.0) mg/kg"}, {"measurement": "LD50 and 95% Confidence Limit", "setting": "[2]; intravenous", "result": "20.0(15.2-26.3) mg/kg"}, {"measurement": "Inhibition", "setting": "Lewis Lung Carcinoma", "result": 65.4, "unit": "%"}, {"measurement": "T/C % (Treatment/Control %)", "setting": "P-388 cells; dose 0.05 mg/kg", "result": 133.3, "unit": "%"}, {"measurement": "T/C % (Treatment/Control %)", "setting": "P-388 cells; dose 0.5 mg/kg", "result": 155.6, "unit": "%"}, {"measurement": "T/C % (Treatment/Control %)", "setting": "P-388 cells; dose 2 mg/kg", "result": 168.9, "unit": "%"}, {"measurement": "T/C % (Treatment/Control %)", "setting": "P-388 cells; dose 10 mg/kg", "result": 194.7, "unit": "%"}, {"measurement": "P388 (i.P. - i.P.) T/C (%)", "setting": "P-388 cells; Table 7, dose 0.05 mg/kg", "result": 133.3, "unit": "%"}, {"measurement": "P388 (i.P. - i.P.) T/C (%)", "setting": "P-388 cells; Table 7, dose 0.5 mg/kg", "result": 155.6, "unit": "%"}, {"measurement": "P388 (i.P. - i.P.) T/C (%)", "setting": "P-388 cells; Table 7, dose 2 mg/kg", "result": 168.9, "unit": "%"}, {"measurement": "P388 (i.P. - i.P.) T/C (%)", "setting": "P-388 cells; Table 7, dose 5 mg/kg", "result": 175.8, "unit": "%"}, {"measurement": "P388 (i.P. - i.P.) T/C (%)", "setting": "P-388 cells; Table 7, dose 10 mg/kg", "result": 194.7, "unit": "%"}, {"measurement": "Inhibition", "setting": "Erlich carcinoma", "result": 46.9, "unit": "%"}, {"measurement": "T/C", "setting": "P 388; 1.11 mg/kg × 9", "result": 112.5, "unit": "%"}, {"measurement": "T/C", "setting": "P 388; 5.56 mg/kg × 9", "result": 171.5, "unit": "%"}, {"measurement": "L1210 (i.P. - i.P.) T/C (%)", "setting": "L-1210 cells; Table 7, dose 0.05 mg/kg", "result": 100.9, "unit": "%"}, {"measurement": "L1210 (i.P. - i.P.) T/C (%)", "setting": "L-1210 cells; Table 7, dose 0.5 mg/kg", "result": 110.0, "unit": "%"}, {"measurement": "L1210 (i.P. - i.P.) T/C (%)", "setting": "L-1210 cells; Table 7, dose 2 mg/kg", "result": 114.4, "unit": "%"}, {"measurement": "L1210 (i.P. - i.P.) T/C (%)", "setting": "L-1210 cells; Table 7, dose 5 mg/kg", "result": 120.0, "unit": "%"}, {"measurement": "L1210 (i.P. - i.P.) T/C (%)", "setting": "L-1210 cells; Table 7, dose 10 mg/kg", "result": 128.9, "unit": "%"}, {"measurement": "effectiveness against MM2", "setting": "MM2; (see Table 7)", "result": "effective"}, {"measurement": "MM2 (i.P. - i.P.) T/C (%)", "setting": "MM2; Table 7, dose 0.5 mg/kg", "result": 102.5, "unit": "%"}, {"measurement": "MM2 (i.P. - i.P.) T/C (%)", "setting": "MM2; Table 7, dose 2 mg/kg", "result": 109.2, "unit": "%"}, {"measurement": "MM2 (i.P. - i.P.) T/C (%)", "setting": "MM2; Table 7, dose 5 mg/kg", "result": 117.8, "unit": "%"}, {"measurement": "MM2 (i.P. - i.P.) T/C (%)", "setting": "MM2; Table 7, dose 10 mg/kg", "result": 120.9, "unit": "%"}]}
